Series [1] in a line: Loading of taxanes onto PLGA TIPS microspheres via antisolvent precipitation (drug loading efficiency, UV 229 nm). The class given is physicochemical. The note with it: for taxane loaded onto the microspheres from the solution: 0.1% (w/v) pure taxane in ethanol, 5 mg dry PLGA TIPS microspheres, within 60 minutes of initiating mixing. As to the method:
A facile method was developed to load DTX and other taxanes such as paclitaxel and cabazitaxel onto TIPS microspheres via antisolvent precipitation (FIG. 1). 5 mg of PLGA TIPS microspheres were transferred into 20 ml clear Type 1B boroscilicate glass vials and sealed with a butyl injection stopper. 4.5 mL of ultrapure water was added to the vial and vortexed for 10 seconds. 0.5 ml of 0.1% (w/v) taxane in ethanol, or a formulation of docetaxel or paclitaxel matching Taxotere® or Taxol® was added using a 1 mL syringe with a 25G needle through the rubber stopper, when the vial was inverted. The vial was then vortexed for 10 seconds and placed on a roller mixer (IKA® Roller 6 Digital; 60 rpm) at room temperature for predetermined periods (5, 15, 30, 60, 120 minutes).
Drug loading efficiency (DLE) of the taxane, such as DTX, onto the TIPS microspheres at each time-point was calculated according to Equation 1. The amount of free taxane left in the solution was measured by UV spectroscopy at the wavelength of 229 nm using a Nanodrop 2000c spectrophotometer (Thermo Scientific, Waltham, MA, USA).
• 1. Dry TIPS PLGA microspheres (size range of 250-350 μm): Docetaxel loaded onto 5 mg PLGA TIPS microspheres as described directly above. […] An equivalent number of solid PLGA microspheres (size range of 250-350 μm) to the quantity of microspheres in 5 mg of dry TIPS PLGA microspheres were transferred into 20 ml clear Type 1B boroscilicate glass vials and sealed with a butyl injection stopper. […] Drug loading efficiency (DLE) of docetaxel (DTX) onto the TIPS microspheres at each time-point was calculated according to Equation 1. The amount of free docetaxel left in the solution was measured by UV spectroscopy at the wavelength of 229 nm using a Nanodrop 2000c spectrophotometer (Thermo Scientific, Waltham, MA, USA). […]

Series [2] can be described thus: Docetaxel release from DTX-TIPS microspheres in dynamic perfusion system. The class given is physicochemical. To be noted: PBS pH 7.4, 37 C, 0.01 mL/min; over 5 days. On the procedure:
Release profile of DTX from the TIPS microspheres was investigated using a dynamic perfusion system to simulate tissue perfusion of the drug-device combination in the physiological milieu when used in clinic following radical prostatectomy. Thus, the perfusion system was placed inside an incubator at 37° C. and physiological simulated medium (phosphate buffed saline (PBS); pH 7.4) was used as perfusate. DTX-loaded microspheres were mixed with 100 μl of 70% (v/v) GranuGel® (Convatec, UK) diluted in ultrapure water and the mixture was placed between two 25 mm circular filter papers (Whatman® qualitative cellulose filter paper, Grade 1), where their positions were held by a Swin-Lok™ plastic membrane filter holder. A hypodermic needle (18G×40 mm) connecting the outlet of the filter holder, was inserted through the lid of a 50 ml polypropylene container to collect the perfusate. PBS was pumped through the filter holder by a peristaltic pump (Harvard Apparatus) at a flow rate of 0.01 mL/min. […]
The amount of DTX released in the perfusate was determined using a predetermined standard curve. At each measurement, the concentration of DTX in the release medium collected in the polypropylene container was determined by UV spectroscopy at 229 nm as described above, to calculate the cumulative DTX release according to Equation 2.

For a further series, the system named is PC3 cells. Description: Colony formation assay with perfusate from DTX-TIPS microspheres. In kind it is cell-based, human. To be noted: DTX released into perfusate during the first 5 days. On the procedure:
PC3 cells were maintained in Ham's F12-K medium (Kaighn's modification) (Invitrogen, 21127-022) supplemented with 10% (v/v) foetal bovine serum (FBS) and 1% antibiotics (referred to henceforth as complete medium). Cells were cultured at 37° C. under 5% CO2 atmosphere in a humidified incubator.
PC3 cells cultured in 6 well plates were incubated for 48 hours in 2 ml of perfusate (conditioned complete culture medium) collected from DTX-TIPS microspheres loaded into the perfusion system, as outlined above. Colony formation assays were performed as previously described (Franken NAP, Rodermond HM, Stap J, Haveman J, van Bree C. Clonogenic assay of cells in vitro. Nat Protoc. 2006; 1(5):2315-2319). […] The colonies were counted in ImageJ using the ‘Colony Counter’ plug in (processing parameters: size 100-30,000; circularity 0.5-1) (https://imagej.nih.gov/ij/plugins/colony-counter.html).
Plating efficiency (PE) was estimated by dividing the number of colonies counted by the number of cells initially seeded. […]

The next series deals with PC3 xenograft tumour. The experiment in a line: In vivo tumour growth inhibitory activity, PC3 xenograft. Also on record: species or system NSG immunodeficient mice. On the procedure: Female NSG™ immunodeficient mice (NOD.Cg-PrkdscidIl2rgtm1Wjl/SzJ; Charles River), aged 6-7 weeks and 18-20 g in body weight, were acclimatised for 1 week prior to injection of tumour cells. PC3 cells (5.0×10^6 cells in 100 μl phosphate buffered saline [PBS]) were injected subcutaneously into the right flank of each mouse. The dimensions of tumour were measured three times per week using digital callipers and the tumour volume calculated using the following formula: […]

Series [3] is described as follows: Measurement of DTX in plasma after administration (LC-MS/MS). The class given is in vivo, BALB/cAnNCrl mice. On the procedure:
Docetaxel-loaded TIPS microspheres were prepared via anti-solvent precipitation, as outlined above. […] For measurement of circulating DTX in plasma, blood samples were collected via the tail vein at day 0 (pre-dose), and days 1, 2, 3, 7, 10 then every 5 days until day 35 immediately before the end of in life phase. Blood samples were collected into 10 μl capillaries containing sodium heparin (Hirschmann, Eberstadt, Germany) and placed in wells of a 2 ml deep well plate that was stored at −80° C. until extraction.
On the day of the extraction, calibration curve and sample plates were thawed. 125 μl of water:acetonitrile containing 0.4% […] was added to blanks, calibration curve and QCs. 125 μl of 70:30 water:acetonitrile containing 0.4% DMSO was added to all samples. 40 μl of each […]:water:acetonitrile sample was taken and protein precipitated with 120 μl acetonitrile containing DTX-D9 (25 nM). Samples were mixed and centrifuged. Supernatant was taken and diluted 40:60 with 0.5% sodium acetate (20 μM) in ammonium acetate (10 mM, pH5).
Liquid chromatography-mass spectrometry analysis was carried out with a Waters (Milford, MA) H-class Acquity solvent manager and sample manager on a Waters Acquity HSS PFP column (1.8 μm, 50 mm×2.1 mm id) with a gradient consisting of 10 mM ammonium acetate (pH 5.0) and acetonitrile mobile phases. The flow rate was 0.6 ml/min and the run time 5.6 minutes. Analyte and internal standard were ionised using electrospray ionisation in positive ion mode. Detection of analytes was via tandem mass spectrometry (MS/MS) using a Waters Xevo TQ-S mass spectrometer in the multiple reaction monitoring (MRM) mode. For DTX and DTX-D9 (IS), the transitions m/z 830.4-248.1/304.2 and m/z 839.4-313.0 were monitored respectively. The calibration curve was linear over the concentration range […].

The nature of series [4]: DTX concentration in tissues from explanted organs (LC-MS/MS). In kind it is in vivo, NSG mice. The note with it: NSG, mouse, intravenous, 10 mg/kg; for concentration at 1 day: day 1 post-administration; for concentration at 10 day: day 10 post-administration; for concentration at 35 day: day 35 post-administration. As to the method: At the end of the in-life phase (day 1, 10 and 35 post-treatment) the mice were euthanised by overdose of CO2, followed by cervical dislocation and organs (heart, liver, kidneys, lungs and spleen) were collected, weighed and immediately frozen in liquid nitrogen before storage at −80° C. until further analysis. Evaluation of docetaxel concentrations was carried out by liquid chromatography tandem mass spectrometry in tissue following homogenisation in 3 ml/g (spleens 5 ml/g) 10 mM PBS using a Precellys 24 homogeniser (Bertin technologies, Montigny-le-Bretonneux, France). 45 μl tissue homogenate was spiked with 5 μl DMSO, samples were mixed and protein precipitated with 150 μl acetonitrile containing DTX-D9 as internal standard (25 nM). Samples were mixed and centrifuged. Supernatant was taken and diluted 40:60 with 0.5% sodium acetate (20 μM) in ammonium acetate (10 mM, pH 5). Blanks, calibration curve and QCs were prepared as above using tissues obtained from the same strain of mice (NSG) and spiked with DMSO, working calibration standard and working QC respectively. Blanks consisted of protein precipitated with acetonitrile alone, blank+, standards and QCs were protein precipitated with acetonitrile containing DTX-D9.

Results on two molecules are retold here after patent US12514931B2, “Microsphere-drug combination” (UCL Business LTD, priority 2019, dated 2026).

Consider `CO[C@H]1C(=O)[C@]2(C)[C@@H](OC)C[C@H]3OC[C@@]3(OC(C)=O)[C@H]2[C@H](OC(=O)c2ccccc2)[C@]2(O)C[C@H](OC(=O)[C@H](O)[C@@H](NC(=O)OC(C)(C)C)c3ccccc3)C(C)=C1C2(C)C` [cabazitaxel], for which the “taxane loaded onto the microspheres from the solution” value in series [1] is “about 60%”.
Regarding `CC(=O)O[C@@]12CO[C@@H]1C[C@H](O)[C@@]1(C)C(=O)[C@H](O)C3=C(C)[C@@H](OC(=O)[C@H](O)[C@@H](NC(=O)OC(C)(C)C)c4ccccc4)C[C@@](O)([C@@H](OC(=O)c4ccccc4)[C@H]21)C3(C)C` [docetaxel, Docetaxel], the “taxane loaded onto the microspheres from the solution” value in series [1] is “Approximately 80%”. For the same molecule, in series [1] (room temperature, no heating or cooling steps), the “time of maximum loading onto the TIPS particles” value was ≤ 60 min. Further, in series [2], the “cumulative release of total DTX loaded” value is reported as “approximately 95%”. Also, the “toxicity against the PC3 cells in the colony forming assay” value in the series with PC3 cells is given as 100%. Further, in the series on PC3 xenograft tumour (Example 8, compared with saline or control microsphere group), the “tumour volume over the study period” value was “Tumour growth inhibition was most apparent”. The “tumour volume / tumour growth inhibition” value in the series with PC3 xenograft tumour (Example 9, DTX-TIPS compared with I.V. DTX, until day 21) is “did not increase”. Further, the results for the “plasma DTX level, I.V. DTX relative to DTX-TIPS group” value in series [3] (1 hour post-administration) and in series [3] (24 hour post-administration) were 102 fold and 8 fold, respectively. Moreover, the DTX in plasma entry in series [3] (48 hours, 72 hours, day 10 and day 15, I.V. 10 mg/kg once weekly for three weeks) is recorded as “detectable levels of DTX remaining in the plasma”. Also, the concentration at 1 day in series [4] (Heart) was determined as 340 ± 42.9 nM; in series [4] (Kidney), 115 ± 22.4 nM; in series [4] (Liver), 87.3 ± 7.85 nM; in series [4] (Lung), 641 ± 92.4 nM; in series [4] (Spleen), 14.1 ± 11.9 nM. The concentration at 10 day is 90.1 ± 19.4 nM in series [4] (Heart); 115 ± 22.4 nM in series [4] (Kidney); 27 ± 11.9 nM in series [4] (Liver); 256 ± 35.5 nM in series [4] (Lung); 35.3 ± 51.9 nM in series [4] (Spleen). Besides, the concentration at 35 day worked out at 0.97 ± 2.37 nM in series [4] (Heart); 1.17 ± 2.86 nM in series [4] (Kidney); 0 nM in series [4] (Liver); 13.8 ± 16.2 nM in series [4] (Lung); 0 nM in series [4] (Spleen).
